Assays:
[1] = microsomes
Mtb Lpd = Mtb Lpd (Mycobacterium tuberculosis (strain ATCC 25618 / H37Rv), UniProt P9WHH9); type: biochemical; settings: read-out: LPD IC50

| Compound | Human Liver Microsome Stability [1] | IC50 (Mtb Lpd) |
| --- | --- | --- |
| Cc1cc(S(=O)(=O)N2CC[C@H]2C(=O)Nc2ccc3cnccc3c2)c2[nH]ncc2c1 [Example 85] | 93 µL/min/mg | 23 nM |
| Cc1cc(S(=O)(=O)N2CC[C@H]2C(=O)Nc2ccc3ncccc3c2)c2[nH]ncc2c1 [Example 87] | 111 µL/min/mg | 35 nM |
| Cc1cc(S(=O)(=O)N(C)CC(=O)Nc2ccc3c(c2)OCCN3C2COC2)c2[nH]ncc2c1 [Example 94] | 45 µL/min/mg | 27.5 nM |
| Cc1cc(S(=O)(=O)N(C)CC(=O)Nc2ccn(C)c(=O)c2)c2n[nH]c(F)c2c1 [Example 95] | 21 µL/min/mg | 51.3 nM |
| Cc1cc(S(=O)(=O)N2CCC(C(=O)Nc3ccn(C)c(=O)c3)C2)c2[nH]ncc2c1 (centres unmarked) [Example 97] | -5 µL/min/mg | 41.9 nM |
| Cc1cc(S(=O)(=O)N(C)CC(=O)Nc2ccn(C3CC3)c(=O)c2)c2[nH]ncc2c1 [Example 98] | 28 µL/min/mg | 93 nM |
| Cc1cc(S(=O)(=O)N(C)CC(=O)Nc2ccn(C3COC3)c(=O)c2)c2[nH]ncc2c1 [Example 99] | 17 µL/min/mg | 56 nM |
| Cc1cc(S(=O)(=O)N(C)CC(=O)Nc2ccn(C3CCOCC3)c(=O)c2)c2[nH]ncc2c1 [Example 100] | 6 µL/min/mg | 50 nM |
| Cc1cc(S(=O)(=O)N(C)CC(=O)Nc2ccn3cnnc3c2)c2n[nH]cc2c1 [Example 102] | 31 µL/min/mg | 42 nM |
| Cc1cc(S(=O)(=O)N(C)CC(=O)Nc2ccc3c(c2)OCCN3C(C)(C)CO)c2[nH]ncc2c1 [Example 105] | 56 µL/min/mg | 27 nM |
| Cc1cc(S(=O)(=O)N2CC[C@H]2C(=O)Nc2ccc3cccnc3c2)c2[nH]ncc2c1 [Example 106] | 236 µL/min/mg | 19 nM |
| Cc1cc(S(=O)(=O)N(C)CC(=O)Nc2ccc3c(c2)OCCN3C2CCOCC2)c2n[nH]c(F)c2c1 [Example 121] | 125 µL/min/mg | 25.3 nM |
| Cc1cc(S(=O)(=O)N2CC[C@@H](C(=O)Nc3ccc4c(c3)OCCN4C3CCOCC3)C2)c2n[nH]cc2c1 [Example 122] | 26 µL/min/mg | 30.4 nM |
| Cc1cc(S(=O)(=O)N2CC[C@@H](C(=O)Nc3ccc4c(c3)OCCN4C3COC3)C2)c2[nH]ncc2c1 [Example 123] | 23 µL/min/mg | 28.6 nM |
| Cc1cc(S(=O)(=O)N(C)CC(=O)Nc2ccn(C)c(=O)c2)c2[nH]c(C#N)cc2c1 [Example 124, 2-((2-cyano-N,5-dimethyl-1H-indole)-7-sulfonamido)-N-(1-methyl-2-oxo-1,2-dihydropyridin-4-yl)acetamide] | 51 µL/min/mg | 79.6 nM |
| Cc1cc(S(=O)(=O)N(C)CC(=O)NCc2cn(-c3ccccc3)nn2)c2[nH]ncc2c1 [Example 125, 2-((N,5-dimethyl-1H-indazole)-7-sulfonamido)-N-((1-phenyl-1H-1,2,3-triazol-4-yl)methyl)acetamide] | 520 µL/min/mg | 48 nM |
| Cc1cc(S(=O)(=O)N2CC[C@H]2C(=O)NC2CCN(C)CC2)c2[nH]ncc2c1 [Example 129] | 418 µL/min/mg | 6560 nM |

| Compound | Human Liver Microsome Stability [1] | IC50 (Mtb Lpd) |
| --- | --- | --- |
| Cc1cc(S(=O)(=O)N(C)CC(=O)Nc2ccc3c(c2)OCCN3C2COC2)c2n[nH]c(F)c2c1 [Example 140] | 66 µL/min/mg | 27.8 nM |
| Cc1cc(S(=O)(=O)N2CC[C@H]2C(=O)Nc2ccc3c(c2)OCCN3C2COC2)c2n[nH]cc2c1 [Example 143] | 84 µL/min/mg | 36.2 nM |
| Cc1cc(S(=O)(=O)N2CC[C@H]2C(=O)Nc2ccc3c(c2)OCCN3C2CCOCC2)c2n[nH]cc2c1 [Example 144] | 166 µL/min/mg | 37.9 nM |
| CCN(CC(=O)Nc1ccc2c(c1)OCCN2C(C)(C)CO)S(=O)(=O)c1cc(C)cc2cn[nH]c12 [Example 145, 2-((N-ethyl-5-methyl-1H-indazole)-7-sulfonamido)-N-(4-(1-hydroxy-2-methylpropan-2-yl)-3,4-dihydro-2H-benzo[b][1,4]oxazin-7-yl)acetamide] | 92 µL/min/mg | 39 nM |
| Cc1cc(S(=O)(=O)N(C)CC(=O)Nc2ccc3c(c2)OCCN3CC(C)(C)O)c2[nH]ncc2c1 [Example 146] | 31 µL/min/mg | 26 nM |
| Cc1cc(S(=O)(=O)N2CC[C@H]2C(=O)Nc2ccc3c(c2)OCCN3C(C)(C)CO)c2[nH]ncc2c1 [Example 147] | 212 µL/min/mg | 37 nM |
| Cn1ccc(NC(=O)[C@@H]2CCN2S(=O)(=O)c2cc(Cl)cc3c(F)n[nH]c23)cc1=O [Example 148] | -17 µL/min/mg | 40 nM |
| Cn1ccc(NC(=O)[C@@H]2CCN2S(=O)(=O)c2cc(Cl)cc3cn[nH]c23)cc1=O [Example 149] | 14 µL/min/mg | 61 nM |
| CN(CC(=O)Nc1ccn(C)c(=O)c1)S(=O)(=O)c1cc(Cl)cc2c(F)n[nH]c12 [Example 150] | 1 µL/min/mg | 46 nM |
| Cn1ccc(NC(=O)[C@@H]2CCN2S(=O)(=O)c2cc(Br)cc3c(F)n[nH]c23)cc1=O [Example 151, (S)-1-((5-bromo-3-fluoro-1H-indazol-7-yl)sulfonyl)-N-(1-methyl-2-oxo-1,2-dihydropyridin-4-yl)azetidine-2-carboxamide] | -4 µL/min/mg | 180 nM |
| Cn1ccc(NC(=O)[C@@H]2CCN2S(=O)(=O)c2cc(C(F)F)cc3cn[nH]c23)cc1=O [Example 152, (S)-1-((5-(difluoromethyl)-1H-indazol-7-yl)sulfonyl)-N-(1-methyl-2-oxo-1,2-dihydropyridin-4-yl)azetidine-2-carboxamide] | -7 µL/min/mg | 58 nM |
| Cc1cc(S(=O)(=O)N2CC[C@H]2C(=O)Nc2ccc(N3CCN(C)CC3)c(Cl)c2)c2[nH]ncc2c1 [Example 153, (S)—N-(3-chloro-4-(4-methylpiperazin-1-yl)phenyl)-1-((5-methyl-1H-indazol-7-yl)sulfonyl)azetidine-2-carboxamide] | 113 µL/min/mg | 48 nM |
| CCN(CC(=O)Nc1ccc2c(c1)OCCN2C1CCOCC1)S(=O)(=O)c1cc(C)cc2c[nH]nc12 [Example 156] | 58 µL/min/mg | 27.4 nM |
| Cc1cc(S(=O)(=O)N(C)CC(=O)Nc2ccc3c(c2)OC(C)(C)CN3C)c2n[nH]cc2c1 [Example 158] | 46 µL/min/mg | 22 nM |
| Cc1cc(S(=O)(=O)N(C)CC(=O)Nc2ccc3c(c2)OC(C)(C)C(=O)N3C)c2n[nH]cc2c1 [Example 159] | 67 µL/min/mg | 19 nM |
| CCN(CC(=O)Nc1ccc(N2CCN(C)CC2)c(Cl)c1)S(=O)(=O)c1cc(C)cc2cn[nH]c12 [Example 160] | 107 µL/min/mg | 106 nM |
| O=C(Nc1ccc2c(c1)OCCN2C1CCOCC1)[C@@H]1CCN1S(=O)(=O)c1cc(Cl)cc2cn[nH]c12 [Example 161] | 121 µL/min/mg | 33 nM |

From patent US20240132480A1, “INHIBITORS OF MYCOBACTERIUM TUBERCULOSIS LIPOAMIDE DEHYDROGENASE” (Cornell University, priority 2021, published 2024)
